Measured values as given in patent US7235534B2, “Antisense strategy to modulate estrogen receptor response (ER α and/or ER β )” (Institut de Cardiologie de Montreal, priority 2001, dated 2007).

Tested on: p42/44 MAPK
Assay: Western blot of p42/44 MAPK phosphorylation in PSMC
Format: cell-based, porcine
Description: Confluent PAEC and PSMC were starved for 7 hours in DMEM and antibiotics. Culture medium was removed, and cells were rinsed twice with ice-cold DMEM. PSMC were incubated on ice in DMEM with or without 17βE (10^−8M) for 30 min, incubated at 37° C. for 5, 10, 15 and 30 min, then brought back on ice. Cell were then rinsed with cold DMEM, incubated on ice in DMEM, bovine serum albumin (1 mg/ml), PDGF-BB (10 ng/ml) for 30 min, incubated at 37° C. for 5 min, and then brought back on ice. PAEC were incubated on ice in DMEM with or without 17βE (10^−7M) for 30 min, then incubated at 37° C. for 5, 10, 15 and 30 min and brought back on ice. […] Total proteins were prepared by the addition of 500 μl of lysis buffer containing phenylmethylsulfonyl fluoride 1 mM, leupeptin 10 μg/ml, aprotinin 30 μg/ml, and NaVO3 1 mM (Sigma). Plates were incubated at 4° C. for 30 min and scraped, and the protein concentration was determined with a Bio-Rad protein kit (Bio-Rad, Hercules, Calif.). Same protein quantity for each cell type and condition were dissolved in Laemmli's buffer, boiled for 5 min in reducing conditions, separated by a 10% gradient SDS-PAGE (Protean II kit; Bio-Rad), and transblotted onto a 0.45-μm polyvinylidene difluoride membranes (Millipore Corp., Bedford, Mass.). The membranes were blocked in 5% Blotto-TTBS (5% nonfat dry milk; Bio-Rad), 0.05% Tween 20, 0.15 M NaCl, 25 mM Tris-HCl, pH 7.5) for 1 h at room temperature with gentle agitation and incubated overnight at 4° C. in 0.5% Blotto-TTBS with the addition of an anti-phospho p42/44 MAPK or an anti-phospho p38 MAPK rabbit polyclonal antiserums (α-pp42/44; dilution of 1:10 000, and α-pp38; dilution 1:5000, New England BioLabs, Beverly, Mass.). Membranes were washed with TTBS, and incubated at room temperature with an anti-rabbit IgG antibody coupled to horseradish peroxidase (dilution 1:10 000–1:20 000, Santa Cruz Biotechnology, Santa Cruz, Calif.) in 0.5% Blotto-TTBS for 30 min. […] Kaleidoscope molecular weight and SDS-plyacrylamide gel electrophoresis broad range marker proteins (Bio-Rad) were used as standards for SDS-plyacrylamide gel electrophoresis. Digital image densitometry (PDI Bioscience, Aurora, ON) was performed on x-ray film to determine relative percentages of p42/44 and p38 MAPK phosphorylation.
Confluent PAEC and PSMC were preteated with or without antisense sequences as described above for Western Blot analysis. Cells were rinsed twice with ice-cold DMEM. PSMC and PAEC were stimulated with or without 17βE (10^−8 mol/L) as previously described (Geraldes P). […] Same quantity of protein was separated by a 10% gradient SDS-PAGE (Protean II kit; Bio-Rad), and transblotted onto a 0.45-μm polyvinylidene difluoride membranes (Millipore Corp.). […]

C[C@]12CC[C@@H]3c4ccc(O)cc4CC[C@H]3[C@@H]1CC[C@@H]2O [17βE, 17-beta-estradiol]
time of maximum inhibition of PDGF-BB-induced p42/44 MAPK phosphorylation (17βE 10^−8M pretreatment, PDGF-BB 5 minutes): 30 min
reversal of PDGF-BB-increased p42/44 MAPK phosphorylation (17βE 10^−8 mol/L 30 minutes, Example 2): reversed
reduction of PDGF-BB induced phosphorylation of p42/44 MAPK (17βE for 30 min): 100%
change in basal phosphorylation of p42/44 MAPK (substance alone, data not shown): did not observe any change
